Data from US11072632B2, “Inhibitors of 17β-HSD1, 17β-HSD3 and 17β-HSD10” (UNIVERSITÉ LAVAL, priority 2011, dated 2021).
Where two headings read alike, the source gives them in different places.

Key:
17β-HSD1 = target: T1, 17β-HSD1 (Homo sapiens, UniProt P14061); assay: Inhibition of 17β-HSD1 in T-47D intact cells (E1 into E2); type: cell-based; conditions: for inhibition at 0.01 µM: read-out: Inhibition % (0.01 μM)
T1 construct: endogenous in cells; host or cells: T-47D
T1 sequence (P14061 1-328): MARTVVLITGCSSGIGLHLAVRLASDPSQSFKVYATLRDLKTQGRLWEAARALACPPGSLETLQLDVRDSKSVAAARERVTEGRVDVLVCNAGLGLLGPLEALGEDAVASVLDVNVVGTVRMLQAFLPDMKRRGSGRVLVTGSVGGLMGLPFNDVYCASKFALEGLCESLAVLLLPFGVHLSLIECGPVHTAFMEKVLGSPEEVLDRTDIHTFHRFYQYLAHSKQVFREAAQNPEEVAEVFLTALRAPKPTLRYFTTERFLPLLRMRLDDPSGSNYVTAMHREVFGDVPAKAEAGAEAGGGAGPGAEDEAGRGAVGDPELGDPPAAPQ
In short: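 Intact T-47D cells in medium with insulin and 5% charcoal-stripped FBS were incubated with inhibitor (0.1% ethanol) and 60 nM [14C]-estrone, in triplicate. Steroids were ether-extracted and separated by TLC, and [14C]-E1 to E2 conversion was quantified by radioimaging.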

MCF-7 cells = assay: Estrogenic activity in MCF-7 cells; type: cell-based, human; conditions: 7 days, concentrations up to 5 μM
Description: MCF-7 cells were seeded with medium supplemented with insulin (50 ng/mL) and 5% dextran-coated charcoal treated FBS rather than 10% FBS to remove remaining hormones. Aliquots (100 μL) of the cell suspension were seeded in 96-well plates (3000 cells/well). […] Cells were grown either in the absence or presence of the compounds over a period of 7 days. Quantification of cell growth was determined by using the CellTiter 96®Aqueous Solution Cell Proliferation Assay (Promega, Nepean, ON, Canada) following the manufacturer's instructions. To determine the proliferative (estrogenic) activity, the cells were grown in the absence (control fixed as 100%) or presence of the tested compounds at the indicated concentrations.

CYP3A4 = target: T2, CYP3A4 (Homo sapiens, UniProt P08684); assay: Inhibition of CYP3A4 (P450 Inhibition Kit CYP3A4/DBF); type: in vitro ADME
T2 construct: purchased BD Biosciences
T2 sequence (P08684 whole entry): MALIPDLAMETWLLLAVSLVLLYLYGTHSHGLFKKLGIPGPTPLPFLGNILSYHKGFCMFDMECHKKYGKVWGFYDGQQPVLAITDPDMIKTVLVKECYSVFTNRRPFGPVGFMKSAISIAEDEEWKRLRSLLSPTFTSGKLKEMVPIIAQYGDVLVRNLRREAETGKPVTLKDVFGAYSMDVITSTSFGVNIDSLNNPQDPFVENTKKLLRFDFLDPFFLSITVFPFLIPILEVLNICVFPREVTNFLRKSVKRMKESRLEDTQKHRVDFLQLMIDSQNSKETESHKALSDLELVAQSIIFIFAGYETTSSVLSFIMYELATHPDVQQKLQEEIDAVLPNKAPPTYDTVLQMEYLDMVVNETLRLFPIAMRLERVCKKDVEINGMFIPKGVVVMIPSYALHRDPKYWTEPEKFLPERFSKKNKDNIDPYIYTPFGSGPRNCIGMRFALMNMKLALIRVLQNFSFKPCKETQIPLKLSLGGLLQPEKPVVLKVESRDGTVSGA

[1] = Plasma concentration of inhibitor after a single subcutaneous injection; conditions: rat, in vivo, sc
Description: Six week-old male Sprague-Dawley rats weighing approximately 220 g were obtained from Charles-River, Inc. (St-Constant, Qc., Canada). The animals were housed 3 per cage. A pharmacokinetic study was carried out following one subcutaneous (s.c.) injection of the inhibitor at one concentration (2.3 mg/kg of body weight in 0.5 mL of vehicle fluid). The inhibitor was first dissolved in ethanol (EtOH) and thereafter we added propylene glycol (PG) to obtain a final concentration of EtOH of 8%. During this experiment, the rats were housed individually and were fasted for 8 h before inhibitor injection but allowed free access to water. Blood samples for determination of inhibitor plasma concentration were collected at the jugular vein (0.4 mL by animal) at target intervals of 3, 7, 12 and 24 h post-dose for Compound V and 3 and 12 h for CC-156, from three rats per time point. After the collection at 7 h, a replacement fluid (0.9% sodium chloride injection USP) was injected in the rat. Blood samples were collected into Microvette potassium-EDTA (ethylenediamine tetraacetic acid)-coated tube (Sarstedt, Aktiegesellchaft & Co, Germany) and centrifuged at 3200 rpm for 10 minutes at 4° C. The plasma was collected and stored at −80° C. until analyzed by liquid chromatography/mass spectrometry/mass spectrometry (LC/MS/MS) analysis.
The concentration of the inhibitors (Compounds I and V) was determined by LC/MS/MS analysis using a procedure developed at CHUQ (CHUL)-Research Center (Québec, Qc, Canada). Briefly, for extraction from serum, 100 μL of serum sample is transferred to individual tubes and 600 μL of ammonium acetate (1 mM) is added. A methanolic solution (50 μL) containing a steroidal internal standard is then added to each tube. Samples are transferred on Strata-X SPE columns (Phenomenex, Torrance, Calif., USA), which have been conditioned with 2 mL of methanol and 2 mL of water. Each column is washed with 2 mL of methanol:water (10:90, v/v). The inhibitor is then eluted with 5 mL of methanol containing 5 mM ammonium acetate. Methanol is evaporated at 45° C. under inert atmosphere and the residue dissolved in 100 μL of methanol:water (85:15, v/v). For the steroid analysis, the HPLC system uses a 75×4.6-mm, 3 μm reversed-phase Luna Phenyl-Hexyl column (Phenomenex, Torrance, Calif., USA) at a flow rate of 0.8 mL/min. The inhibitor is detected using an API 3000 mass spectrometer, equipped with TurbolonSpray (Applied Biosystems, Canada). ESI in positive ion mode was used. The area under the curve (AUC) was calculated using the linear trapezoidal rule.

Structure (SMILES): C[C@]12CC[C@@H]3c4ccc(O)cc4CC[C@H]3[C@@H]1C[C@H](Cc1cccc(C(N)=O)c1)[C@@H]2O [Compound I, 16β-(m-carbamoylbenzyl)estradiol, reference compound]
- inhibition at 0.01 µM (17β-HSD1; T47D, [14C]-E1 (60 nM) into [14C]-E2, T-47D intact cells, 0.01 μM): 35%
- inhibition at 0.1 µM (17β-HSD1; T47D, [14C]-E1 (60 nM) into [14C]-E2, T-47D intact cells, 0.1 μM, read-out: Inhibition % (0.1 μM)): 66%
- estrogenic activity on MCF-7 cells (FIG. 1) (MCF-7 cells): strongly stimulated the estrogen sensitive MCF-7 cells
- IC50 (CYP3A4; read-out: IC50 on CYP3A4): 1.52 ± 0.29 µM
- time at which maximum plasma concentration (Cmax) was attained ([1]; 2.3 mg/kg): 3 h

Structure (SMILES): C[C@]12CC[C@@H]3c4ccc(CCBr)cc4CC[C@H]3[C@@H]1C[C@H](Cc1cccc(C(N)=O)c1)[C@@H]2O [Compound V, 3-{[(16β,17β)-3-(2-bromoethyl)-17-hydroxyestra-1(10),2,4-trien-16-yl]methyl}benzamide]
- inhibition at 0.01 µM (17β-HSD1; T47D): 23%
- inhibition at 0.1 µM (17β-HSD1; T47D, read-out: Inhibition % (0.1 μM)): 49%
- inhibition at 0.1 µM (17β-HSD1; T47D, read-out: Inhibition (0.1 μM)): 56%
- inhibition at 1 µM (17β-HSD1; T47D, read-out: Inhibition (1 μM)): 89%
- IC50 (17β-HSD1; T-47D intact cells, [14C]-E1 60 nM): 0.068 µM
- estrogenic activity on MCF-7 cells (FIG. 1) (MCF-7 cells): no estrogenicity
- IC50 (CYP3A4): 4.06 ± 0.57 µM
- concentration at 7 h ([1]; male, Sprague-Dawley, s.c. 2.3 mg/kg, 7 h): 73.8 ng/mL
- concentration at 12 h ([1]; male, Sprague-Dawley, s.c. 2.3 mg/kg, 12 h): 50.7 ng/mL
- concentration at 24 h ([1]; male, Sprague-Dawley, s.c. 2.3 mg/kg, 24 h): 11.7 ng/mL
- AUC(0-t) ([1]; male, Sprague-Dawley, s.c. 2.3 mg/kg, read-out: AUC0-24 h): 1150 ng·h/mL
